The test system of data set [1] is MDA-MB-231 cells. Briefly: Anchorage-dependent colony formation. In kind it is cell-based, human. The source says:
(§1) Since a major use of analogues would be for the treatment of this disease, in vitro screening against human breast cancer cell lines was investigated. Two cell lines were investigated. […] The MCF-7 cell line retains estrogen receptor expression, has an absolute requirement for estrogen to form tumors in nude mice, responds to antiestrogen therapy and is more representative of tumors with a better prognosis.
Consequently, the most accurate methods for determining cell kill measure the ability of a single cell to produce a clone of 50 or more cells (equivalent to six or more divisions). Two clonogenic assays were utilized. The anchorage-dependent assay provides the cells with a solid plastic substrate for attachment. The experiments were preformed as described by van den Berg et al. (1981), supra.

Data set [2] concerns MDA-MB-231 human breast tumor cell line. Briefly: Inhibition of DNA synthesis ([^3 H] deoxythymidine incorporation), MDA-MB-231. In kind it is cell-based. The note with it: for inhibition of DNA synthesis: MDA-MB-231, pharmacologically relevant concentrations (FIG. 1).
From the text: as §1
(§2) The cytotoxic effects of Mitomycin-C are largely the result of its interactions with DNA. Consequently, the ability of Mitomycin-C and its analogues to inhibit the rate of incorporation of [^3 H] deoxythymidine into DNA was initially determined. Deoxythymidine is an essential precursor for the synthesis of DNA. The experiments were performed as described by Clarke et al., Br. J. Cancer 51: 365-369 (1985).

For data set [3], the system named is human breast cancer cell lines. Briefly: Conclusion over all four in vitro endpoints. In kind it is cell-based.
From the text: as §1, §2
(§3) The interpretation of the effects of cytotoxic drugs on the rate of cell proliferation is a more difficult endpoint to interpret. For example, a cytotoxic agent may apparently reduce the rate of cell growth by killing a proportion of the cells. Alternatively, all the cells in the population may be growth arrested but not killed. Both of these series of events could produce identical growth curves.
Consequently, the most accurate methods for determining cell kill measure the ability of a single cell to produce a clone of 50 or more cells (equivalent to six or more divisions). […]

Data set [4] relates to MDA-MB-231 cells. Briefly: Inhibition of the rate of cell proliferation. In kind it is cell-based, human. To be noted: for effect on the rate of cell proliferation / cell population kinetics: MDA-MB-231 (FIG. 3).
From the text: as §1, §3

The test system of data set [5] is human breast cancer cell lines. In kind it is cell-based. The note with it: soft agar; for effect on anchorage-independent colony formation / cell survival: two assays (FIG. 5).
From the text: as §1
The anchorage-independent assay ensures that the cells grow in suspension in a soft agar solution. Thus, cells must retain both their basal reproductive integrity and their ability to grow in suspension. The data in FIG. 5 represents the results of two anchorage-independent colony formation assays. The assays were performed as described by Clarke et al., J. Endocrinol. 122: 331-340 (1989).

Data set [6] relates to MCF-7 human breast tumor cell line. The experiment in a line: Inhibition of DNA synthesis ([^3 H] deoxythymidine incorporation), MCF-7. In kind it is cell-based. The note with it: for inhibition of DNA synthesis: MCF-7, pharmacologically relevant concentrations (FIG. 2).
From the text: as §1, §2

The nature of data set [7]: Host toxicity (preliminary data). The note with it: for mortality: mouse, in vivo, one ip injection, read-out: fatalities. In kind it is in vivo, mice. The source says: Further, in vivo testing will be performed in two parts. Firstly, the host toxicity of the analogues in comparison with the parent drug will be tested. The concentration required to kill approximately 10% of a population of mice will then be determined. Histopathological analysis will determine the effect of drug treatment on tissues and organs. Analysis of white blood cell counts will provide information on hematopoietic toxicity. […] 80% and 100% fatalities were observed following one intraperitoneal injection of 30 and 40 mg/kg MC-77 respectively.

The subject of data set [8] is P388 leukemia. The note with it: cited from earlier work.
Another data set has as its system metastatic breast cancer. The note with it: cited from earlier work.
The test system of data set [9] is P388 leukemia. Briefly: Murine P388 leukemia antitumor activity (Example 14, Table 5). In kind it is in vivo, murine (CD2F1 male mice). The source says:
T is the mean survival days of mice receiving drug=treated mice
C is the mean survival days of the mice receiving drug vehicle.

Data set [10] concerns murine and human neoplasms. To be noted: preclinical and clinical studies; cited from earlier work.
In the next data set the test system is bone marrow. The note with it: preclinical and clinical studies; cited from earlier work.
The subject of data set [11] is Gram-negative strain of bacteria (HB101). Briefly: Antibacterial activity, agar dilution M.I.C. (Example 12, Table 4). To be noted: read-out: M.I.C. Gram-negative Bacteria. In kind it is cell-based. On the procedure: Minimum inhibition concentration (M.I.C.) against a Gram-negative strain of bacteria (HB101) was estimated by the dilution method, with graded concentrations of drug added to agar at 37°-40° C. […] The agar, containing drug, quickly solidified at room temperature, and the bacteria were plated immediately.
On the technique in general: In agar dilution, organisms are placed on agar that contains the substance at set levels.

For data set [12], the system named is P388 leukemia. Briefly: Murine P388 leukemia antitumor activity (Example 11, Table 2). In kind it is in vivo, murine (CD2F1 male mice). To be noted: for % ILS (percentage increased life span): Day 1, P388 leukemia; for Mean Survival: control 10.0. How it is done: The murine P388 leukemia system, maintained intraperitoneally in female DBA/2 mice, was used to evaluate antitumor activity.
The P388 antileukemic activity of the test compound was assessed by mean survival days and percentage increased life span (ILS). The % ILS was calculated as follows: […]
where T is the mean survival days of the treated mice and C is the mean survival days of the untreated mice.

Data set [13] deals with peripheral leukocyte (WBC). The experiment in a line: In vivo murine WBC depression / bone marrow toxicity (Table 3). Also noted: species or system normal CD2F1 male mice. How it is done: Blood samples obtained were diluted in 9.98 ml of Isoton (a neutral, isotonic buffer solution) and counted in a Coulter counter after lysis with Zapoglobin (an enzyme solution which lyses red blood cells, but not white blood cells). WBC counts are expressed as a percentage of values from control mice receiving drug vehicle only.

Data set [14] is described as follows: Weight loss resultant from drug toxicity (Example 14, Table 5).
Description: Each compound was administered intraperitoneally to groups of CD2F1 male mice on Day 1 following intraperitoneal implantation of 1×10^6 P388 leukemia cells.
Weight loss resultant from drug toxicity was also determined.

Here are results for five molecules from patent US5091523A (priority 1990, dated 1992).

Converted amounts (≈) assume the structure as drawn. Like-named read-outs stand apart in the source and are kept apart here.

With `CO[C@@]12[C@H](COC(N)=O)C3=C(C(=O)C(C)=C(NCCCC(=O)N[C@@H]4O[C@H](COC(C)=O)[C@@H](OC(C)=O)[C@H](OC(C)=O)[C@H]4NC(C)=O)C3=O)N1C[C@@H]1N[C@@H]12` [MC-62, 7-{3-[(2-acetamido-3,4,6-tri-O-acetyl-β-D-glucopyranosyl)-amino]carbonylpropylamino}-9-methoxymitosane], the “effect on anchorage-dependent colony formation” value with MDA-MB-231 cells [1] (MDA-MB-231 (FIG. 4)) is recorded as “did not significantly influence colony formation”. The “potency in inhibition of DNA synthesis relative to Mitomycin-C and MC-77” value in data set [2] (MDA-MB-231) is “significantly less potent than both Mitomycin-C and MC-77”; in data set [6] (MCF-7) it was “significantly less potent than both Mitomycin-C and MC-77”. The “antineoplastic potential (all four endpoints)” value in [3] is recorded as “significantly reduced antineoplastic potential”. Also, the “effect on the rate of cell proliferation / cell population kinetics” value with MDA-MB-231 cells [4] is recorded as “failed to markedly influence the rate of MDA-MB-231 growth”. Further, in [5], the “effect on anchorage-independent colony formation / cell survival” value is on record as “consistently fails to influence colony formation”.
With `CO[C@@]12[C@H](COC(N)=O)C3=C(C(=O)C(C)=C(Nc4ccc(O[C@@H]5O[C@H](COC(C)=O)[C@@H](OC(C)=O)[C@H](OC(C)=O)[C@H]5OC(C)=O)cc4)C3=O)N1C[C@@H]1N[C@@H]12` [MC-77, 7-{[4-(2,3,4,6-tetra-O-acetyl-β-D-glucopyranosyl)oxyphenyl]amino}-9-methoxymitosane], the “reduction in anchorage-dependent colony forming ability” value in the data set on MDA-MB-231 cells [1] (MDA-MB-231, 0.25 uM) was “significant reduction in colony forming ability”. The “inhibition of anchorage-dependent colony formation compared with Mitomycin-C” value with MDA-MB-231 cells [1] (MDA-MB-231, 0.25 uM, vs equimolar Mitomycin-C, estimated) is “approximately two to five fold greater”. For the same molecule, the “inhibition of DNA synthesis compared with the parent compound” value in data set [2] (MDA-MB-231, equimolar concentrations, vs Mitomycin-C) is listed as “two to five fold greater inhibition of DNA synthesis”; in data set [6] (MCF-7, equimolar concentrations, vs Mitomycin-C), “two to five fold greater inhibition of DNA synthesis”. The “inhibition of DNA synthesis” value in data set [2] is “significant and dose dependent inhibition of DNA synthesis”; in data set [6], “significant and dose dependent inhibition of DNA synthesis”. The “fold less toxic than the parent drug” value in data set [7] (inconclusive preliminary data, vs Mitomycin-C) is “up to two fold less toxic than the parent drug”. Further, the mortality in [7] (30 mg/kg, preliminary, one experiment) was determined as 80%; in data set [7] (40 mg/kg, preliminary, one experiment) it was 100%. In data set [7] (preliminary), the “toxicity compared with Mitomycin-C” value is “no more toxic when compared with Mitomycin-C”. The “dose response curve for toxicity” value in [7] (preliminary, one experiment) is “retained the steep dose response curve for toxicity”. For the same molecule, the “cytotoxic potential compared with the parent drug (all four endpoints)” value in data set [3] (vs Mitomycin-C) was “marked improvement in the cytotoxic potential of between two and five fold”. Besides, the “effect on the rate of cell proliferation / cell population kinetics” value in the data set with MDA-MB-231 cells [4] was “significantly inhibited the rate of cell proliferation”. Besides, the “cell number relative to starting cell number” value with MDA-MB-231 cells [4] (MDA-MB-231, 1.5 uM) was “reduced cell number below starting cell number”. Also, the “effect on anchorage-independent colony formation / cell survival” value in data set [5] is “dose dependent reductions in cell survival”. The “cytotoxicity in anchorage-independent assay compared with Mitomycin-C” value in data set [5] (vs Mitomycin-C) is “two to five fold more cytotoxic”.
Regarding `CO[C@@]12[C@H](COC(N)=O)C3=C(C(=O)C(C)=C(N)C3=O)N1C[C@@H]1N[C@@H]12` [Mitomycin C, mitomycin C, reference compound], the “reduction in anchorage-dependent colony forming ability” value with MDA-MB-231 cells [1] (MDA-MB-231, 0.25 uM) is recorded as “significant reduction in colony forming ability”. Further, in the data set with P388 leukemia [8], the “optimal single ip P388 therapeutic dose” value is 4.5 to 5.5 mg/kg. The “inhibition of DNA synthesis” value in data set [2] was “significant and dose dependent inhibition of DNA synthesis”; in data set [6], “significant and dose dependent inhibition of DNA synthesis”. The “objective responses in patients” value with metastatic breast cancer is given as “significant percentage of objective responses”. The “effect on the rate of cell proliferation / cell population kinetics” value in the data set with MDA-MB-231 cells [4] is recorded as “significantly inhibited the rate of cell proliferation”. In the data set on P388 leukemia [9] (5 mg/kg ip), the “% ILS” value came to 83. Further, the “activity against murine and human neoplasms” value in [10] is “activity against a variety of murine and human neoplasms”. In the data set with bone marrow, the bone marrow toxicity result is on record as “severe, delayed bone marrow toxicity”. For the same molecule, the “effect on anchorage-independent colony formation / cell survival” value in [5] is recorded as “dose dependent reductions in cell survival”. The MIC in data set [11] (HB101, agar, 24 hours at 37° C.) was in the range of 0.3 to 0.5 µg/mL (≈ 0.897 to 1.5 µM).
In the case of `CO[C@@]12[C@H](COC(N)=O)C3=C(C(=O)C(C)=C(N[C@H]4C(O)O[C@H](CO)[C@@H](O)[C@@H]4O)C3=O)N1C[C@@H]1N[C@@H]12` (some centres unmarked) [N^7-(2-deoxyglucopyranosyl)mitomycin C], the “% ILS (percentage increased life span)” value with P388 leukemia [12] (5 mg/kg ip) was determined as 42%; in the data set with P388 leukemia [12] (13.5 mg/kg ip), 61%. For the same molecule, the “Mean Survival” value was 14.2 days in the data set with P388 leukemia [12] (5 mg/kg ip) and 16.1 days in the data set with P388 leukemia [12] (13.5 mg/kg ip). Moreover, in the data set with P388 leukemia [12] (summary), the “activity against the murine P388 tumor system” value was “significant activity against the murine P388 tumor system”. Also, the “WBC Count on Day 3 (as percent of control)” value in data set [13] (13.5 mg/kg ip, normal CD2F1 male mice, Day 3) is 94%. Also, the “bone marrow toxicity as determined by depression of peripheral leukocyte (WBC) count” value in [13] (summary, at active doses) is reported as “no significant bone marrow toxicity”. Further, in data set [11] (24 h), the MIC is 1.66 to 3.3 µg/mL (≈ 3.34 to 6.65 µM).
For `CO[C@@]12[C@H](COC(N)=O)C3=C(C(=O)C(C)=C(Nc4ccc(OP(=O)(O)O)cc4)C3=O)N1C[C@@H]1N[C@@H]12` [N^7-(4-phosphatophenyl)mitomycin C], the weight loss result in [14] (15 mg/kg ip) is “No weight loss”. The same molecule had an Average weight loss in data set [14] (30 mg/kg ip) of 8%. Also, the “body weight decrease for all mice” value in data set [14] (45 mg/kg ip, by Day 6 post-drug injection) is 20-24%. For the same molecule, the figures for the “% ILS” value with P388 leukemia [9] (15 mg/kg ip) and in the data set on P388 leukemia [9] (30 mg/kg ip) were 84 and more than 150, respectively. In addition, the 30-day survivor in the data set on P388 leukemia [9] (30 mg/kg ip) is listed as 1/5.
